What follows are compounds tested against T1, human S1P1 receptors (Homo sapiens, UniProt P21453) (assay: S1P1R antagonist assay (fluorescent membrane potential dye, cAMP readout)). Conditions: HEK293 cells expressing human S1P1 receptors and CNG channel; 500 nM NECA; S1P1R agonist 10 nM; 90 minutes; read-out: EC50 or IC50 value.
T1 construct: host or cells: HEK293
Format: cell-based

T1 sequence (P21453 whole entry): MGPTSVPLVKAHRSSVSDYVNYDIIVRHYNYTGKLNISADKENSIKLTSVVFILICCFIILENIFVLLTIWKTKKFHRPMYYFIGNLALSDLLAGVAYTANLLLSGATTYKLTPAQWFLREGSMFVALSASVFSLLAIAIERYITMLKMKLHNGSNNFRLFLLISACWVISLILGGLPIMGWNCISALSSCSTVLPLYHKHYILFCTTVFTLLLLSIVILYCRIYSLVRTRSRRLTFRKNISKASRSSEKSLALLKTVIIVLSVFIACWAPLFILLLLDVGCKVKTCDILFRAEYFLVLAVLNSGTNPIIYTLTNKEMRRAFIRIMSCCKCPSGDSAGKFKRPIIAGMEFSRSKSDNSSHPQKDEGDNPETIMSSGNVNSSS

IC50, ≤ 300 nM:
O=C(Cc1c[nH]cn1)N[C@@H](COCc1ccccc1)C(=O)Nc1ccc(Oc2ccc(F)cc2)cc1 [Compound 131, (S)-2-(2-(1H-imidazol-5-yl)acetamido)-3-benzyloxy-N-(4-(4-fluorophenoxy)phenyl)propanamide]
O=C(Cc1c[nH]cn1)N[C@@H](COCc1ccc(F)cc1)C(=O)Nc1ccc(Oc2ccc(Cl)cc2)cc1 [Compound 132, (S)-2-(2-(1H-imidazol-5-yl)acetamido)-3-(4-fluorobenzyloxy)-N-(4-(4-chlorophenoxy)phenyl)propanamide]
O=C(Cc1c[nH]cn1)N[C@@H](COCc1ccc(F)cc1)C(=O)Nc1ccc(Oc2ccc(F)cc2)cc1 [Compound 133, (S)-2-(2-(1H-imidazol-5-yl)acetamido)-3-(4-fluorobenzyloxy)-N-(4-(4-fluorophenoxy)phenyl)propanamide]
O=C(Cn1ccnc1)N[C@@H](COCc1ccccc1)C(=O)Nc1ccc(Oc2ccc(F)cc2)cc1 [Compound 134, (S)-2-(2-(1H-imidazol-1-yl)acetamido)-3-benzyloxy-N-(4-(4-fluorophenoxy)phenyl)propanamide]
O=C(Cn1cncn1)N[C@@H](COCc1ccc(F)cc1)C(=O)Nc1ccc(Oc2ccc(F)cc2)cc1 [Compound 135, (S)-2-(2-(1H-1,2,4-triazol-1-yl)acetamido)-3-(4-fluorobenzyloxy)-N-(4-(4-fluorophenoxy)phenyl)propanamide]
O=C(CCl)N[C@@H](COCc1ccccc1)C(=O)Nc1ccc(Oc2ccc(F)cc2)cc1 [Compound 136, (S)-3-(benzyloxy)-2-(2-chloroacetamido)-N-(4-(4-fluorophenoxy)phenyl)propanamide]
O=C(Cc1cnc[nH]1)N[C@@H](CCCc1ccccc1)C(=O)Nc1ccc(Oc2ccc(F)cc2)cc1 [Compound 137, (S)-2-(2-(1H-imidazol-5-yl)acetamido)-5-phenyl-N-(4-(4-fluorophenoxy)phenyl)pentanamide]
O=C(Cn1nccn1)N[C@@H](COCc1ccccc1)C(=O)Nc1ccc(Oc2ccc(F)cc2)cc1 [Compound 138, (S)-2-(2-(2H-1,2,3-triazol-2-yl)acetamido)-3-(benzyloxy)-N-(4-(4-fluorophenoxy)phenyl)propanamide]
O=C(Cn1cncn1)N[C@@H](COCc1ccccc1OC(F)(F)F)C(=O)Nc1ccc(Oc2ccc(F)cc2)cc1 [Compound 139, (S)-2-(2-(1H-1,2,4-triazol-1-yl)acetamido)-N-(4-(4-fluorophenoxy)phenyl)-3-(2-(trifluoromethoxy)benzyloxy)propanamide]
O=C(Nc1ccc(Oc2ccc(F)cc2)cc1)[C@@H]1C[C@@H](Cc2ccccc2)CN1C(=O)Cn1cncn1 [Compound 140, (2S,4R)-1-(2-(1H-1,2,4-triazol-1-yl)acetyl)-4-benzyl-N-(4-(4-fluorophenoxy)phenyl)pyrrolidine-2-carboxamide]
O=C(Nc1ccc(Oc2ccc(F)cc2)cc1)[C@@H]1C[C@@H](Cc2ccc(F)cc2)CN1C(=O)Cn1cncn1 [Compound 141, (2S,4R)-1-(2-(1H-1,2,4-triazol-1-yl)acetyl)-4-(4-fluorobenzyl)-N-(4-(4-fluorophenoxy)phenyl)pyrrolidine-2-carboxamide]
O=C(Cc1cnc[nH]1)NC(COCc1ccccc1)C(=O)Nc1ccc(Oc2ccccc2)cc1 (centres unmarked) [Compound 142, 2-(2-(1H-imidazol-5-yl)acetamido)-3-benzyloxy-N-(4-phenoxyphenyl)propanamide]
O=C(Cc1cnc[nH]1)N[C@@H](COCc1ccccc1)C(=O)Nc1ccc(Oc2ccccc2)cc1 [Compound 143, (S)-2-(2-(1H-imidazol-5-yl)acetamido)-3-benzyloxy-N-(4-phenoxyphenyl)propanamide]
O=C(Cn1cnnn1)N[C@@H](COCc1ccccc1)C(=O)Nc1ccc(Oc2ccccc2)cc1 [Compound 144, (S)-2-(2-(1H-tetrazol-1-yl)acetamido)-3-benzyloxy-N-(4-phenoxyphenyl)propanamide]
O=C(Cc1cnc[nH]1)N[C@@H](COCc1ccccc1)C(=O)Nc1ccc(Oc2ccc(Cl)cc2)cc1 [Compound 145, (S)-2-(2-(1H-imidazol-5-yl)acetamido)-3-benzyloxy-N-(4-(4-chlorophenoxy)phenyl)propanamide]
O=C(Cn1cncn1)N[C@@H](COCc1ccccc1)C(=O)Nc1ccc(Oc2ccccc2)cc1 [Compound 146, (S)-2-(2-(1H-1,2,4-triazol-1-yl)acetamido)-3-(benzyloxy)-N-(4-phenoxyphenyl)propanamide]
O=C(Cc1cnc[nH]1)N[C@@H](COCc1ccccc1)C(=O)Nc1ccc(Oc2ccccc2)c(Cl)c1 [Compound 147, (S)-2-(2-(1H-imidazol-4-yl)acetamido)-3-(benzyloxy)-N-(3-chloro-4-phenoxyphenyl)propanamide]
O=C(Cc1cnc[nH]1)N[C@@H](COCc1ccccc1)C(=O)Nc1ccc(Oc2cccc(Cl)c2)cc1 [Compound 148, (S)-2-(2-(1H-imidazol-4-yl)acetamido)-3-(benzyloxy)-N-(4-(3-chlorophenoxy)phenyl)propanamide]
O=C(Cn1cncn1)N[C@@H](COCc1ccccc1)C(=O)Nc1ccc(Oc2ccc(F)cc2)cc1 [Compound 149, (S)-2-(2-(1H-1,2,4-triazol-1-yl)acetamido)-3-benzyloxy-N-(4-(4-fluorophenoxy)phenyl)propanamide]
Cc1noc(C)c1CC(=O)N[C@@H](COCc1ccccc1)C(=O)Nc1ccc(Oc2ccc(F)cc2)cc1 [Compound 150, (S)-3-(benzyloxy)-2-(2-(3,5-dimethylisoxazol-4-yl)acetamido)-N-(4-(4-fluorophenoxy)phenyl)propanamide]
O=C(Cn1nnc2ccccc21)N[C@@H](COCc1ccccc1)C(=O)Nc1ccc(Oc2ccc(F)cc2)cc1 [Compound 151, (S)-2-(2-(1H-benzo[d][1,2,3]triazol-1-yl)acetamido)-3-(benzyloxy)-N-(4-(4-fluorophenoxy)phenyl)propanamide]
Cc1n[nH]c(C)c1CC(=O)N[C@@H](COCc1ccccc1)C(=O)Nc1ccc(Oc2ccc(F)cc2)cc1 [Compound 152, (S)-3-(benzyloxy)-2-(2-(3,5-dimethyl-1H-pyrazol-4-yl)acetamido)-N-(4-(4-fluorophenoxy)phenyl)propanamide]
Cc1cn(CC(=O)N[C@@H](COCc2ccccc2)C(=O)Nc2ccc(Oc3ccc(F)cc3)cc2)nn1 [Compound 153, (S)-3-(benzyloxy)-N-(4-(4-fluorophenoxy)phenyl)-2-(2-(4-methyl-1H-1,2,3-triazol-1-yl)acetamido)propanamide]
O=C(Cc1cnc[nH]1)N[C@@H](COCc1ccccc1)C(=O)Nc1ccc(Oc2ccc(Cl)cc2)c(Cl)c1 [Compound 154, (S)-2-(2-(1H-imidazol-4-yl)acetamido)-3-(benzyloxy)-N-(3-chloro-4-(4-chlorophenoxy)phenyl)propanamide]
O=C(CN1CCOCC1)N[C@@H](COCc1ccccc1)C(=O)Nc1ccc(Oc2ccc(F)cc2)cc1 [Compound 155, (S)-3-(benzyloxy)-N-(4-(4-fluorophenoxy)phenyl)-2-(2-morpholinoacetamido)propanamide]
O=C(Cc1c[nH]cn1)N[C@@H](COCc1ccccc1)C(=O)Nc1ccc(Oc2ncc(Br)s2)cc1 [Compound 156, (S)-2-(2-(1H-imidazol-4-yl)acetamido)-3-(benzyloxy)-N-(4-(5-bromothiazol-2-yloxy)phenyl)propanamide]
O=C(Cc1cnc[nH]1)N[C@@H](CCc1ccccc1)C(=O)Nc1ccc(Oc2ccc(Cl)cc2)cc1 [Compound 157, (S)-2-(2-(1H-imidazol-5-yl)acetamido)-N-(4-(4-chlorophenoxy)phenyl)-4-phenylbutanamide]
Cc1ccc(Oc2ccc(NC(=O)[C@H](COCc3ccccc3)NC(=O)Cc3c[nH]cn3)cc2)cc1 [Compound 158, (S)-2-(2-(1H-imidazol-5-yl)acetamido)-3-(benzyloxy)-N-(4-(p-tolyloxy)phenyl)propanamide]
O=C(Cc1cnccn1)N[C@@H](COCc1ccccc1)C(=O)Nc1ccc(Oc2ccc(F)cc2)cc1 [Compound 159, (S)-3-(benzyloxy)-N-(4-(4-fluorophenoxy)phenyl)-2-(2-(pyrazin-2-yl)acetamido)propanamide]
Cc1nccn1CC(=O)N[C@@H](COCc1ccccc1)C(=O)Nc1ccc(Oc2ccc(F)cc2)cc1 [Compound 160, (S)-3-(benzyloxy)-N-(4-(4-fluorophenoxy)phenyl)-2-(2-(2-methyl-1H-imidazol-1-yl)acetamido)propanamide]
CC(C)(C(=O)N[C@@H](COCc1ccc(F)cc1)C(=O)Nc1ccc(Oc2ccc(F)cc2)cc1)c1c[nH]cn1 [Compound 161, (S)-2-(2-(1H-imidazol-4-yl)-2-methylpropanamido)-3-(4-fluorobenzyloxy)-N-(4-(4-fluorophenoxy)phenyl)propanamide]
Cc1nc(CC(=O)N[C@@H](COCc2ccccc2)C(=O)Nc2ccc(Oc3ccc(F)cc3)cc2)c[nH]1 [Compound 162, (S)-3-(benzyloxy)-N-(4-(4-fluorophenoxy)phenyl)-2-(2-(2-methyl-1H-imidazol-4-yl)acetamido)propanamide]
CC(=O)N[C@@H](COCc1ccc(F)cc1)C(=O)Nc1ccc(Oc2ccc(F)cc2)cc1 [Compound 164, (S)-2-acetamido-3-(4-fluorobenzyloxy)-N-(4-(4-fluorophenoxy)phenyl)propanamide]
O=C(Cn1cncn1)N[C@@H](CCCNC(=O)OCc1ccccc1)C(=O)Nc1ccc(Oc2ccc(F)cc2)cc1 [Compound 165, (S)-benzyl 4-(2-(1H-1,2,4-triazol-1-yl)acetamido)-5-(4-(4-fluorophenoxy)phenylamino)-5-oxopentylcarbamate]
Cc1cc(CC(=O)N[C@@H](COCc2ccccc2)C(=O)Nc2ccc(Oc3ccc(F)cc3)cc2)[nH]n1 [Compound 166, (S)-3-(benzyloxy)-N-(4-(4-fluorophenoxy)phenyl)-2-(2-(3-methyl-1H-pyrazol-5-yl)acetamido)propanamide]

Source: patent publication US8791102B2, “Acetanilide sphingosine-1-phosphate receptor antagonists” (Exelixis, Inc., priority 2008, dated 2014)
